Data on 25 compounds can be found in patent US20100311714A1, “1H-IMIDAZO[4,5-c]QUINOLINONE COMPOUNDS” (priority 2009, published 2010).

Assay [1] relates to PKB Ser473 phosphorylation in Rat1-myr-HA-p110 delta cells. The assay can be described thus: Reverse protein array, PKB Ser473 phosphorylation in Rat1-myr-HA-p110 delta cells. It counts as cell-based. The settings on record: Rattus norvegicus, 0.5 h, 30 minutes compound incubation, read-out: p-PKB/IC50_delta.
For assay [2], the system named is PKB Ser473 phosphorylation in Rat1-myr-HA-p110 alpha cells. Kind of assay: Reverse protein array, PKB Ser473 phosphorylation in Rat1-myr-HA-p110 alpha cells. It is filed as cell-based. The settings on record: Rattus norvegicus, 0.5 h, 30 minutes compound incubation, read-out: p-PKB/IC50_alpha.

As to `CNC(=O)c1ccc(-c2ccc3ncc4c(c3c2)n(-c2cccnc2C)c(=O)n4C)cc1` [Example 2.4, N-Methyl-4-[3-methyl-1-(2-methyl-pyridin-3-yl)-2-oxo-2,3-dihydro-1H-imidazo[4,5-c]quinolin-8-yl]-benzamide], the IC50 in assay [1] was found to be 29.1 nM; in assay [2] it was 14.6 nM.

Regarding `Cc1ncccc1-n1c(=O)n(C)c2cnc3ccc(-c4cnc5[nH]ccc5c4)cc3c21` [Example 2.8, 3-Methyl-1-(2-methyl-pyridin-3-yl)-8-(1H-pyrrolo[2,3-b]pyridin-5-yl)-1,3-dihydro-imidazo[4,5-c]quinolin-2-one], the results for the IC50 in assay [1] and in assay [2] were 13.8 nM and 6.84 nM, respectively.

For the compound `COCc1ncc(-c2ccc3ncc4c(c3c2)n(-c2cccnc2C)c(=O)n4C)cc1OC` [Example 2.30, 8-(5-Methoxy-6-methoxymethyl-pyridin-3-yl)-3-methyl-1-(2-methyl-pyridin-3-yl)-1,3-dihydro-imidazo[4,5-c]quinolin-2-one], the IC50 was 336 nM in assay [1] and 52.2 nM in assay [2].

In the case of `Cn1c(=O)n(-c2cccnc2F)c2c3cc(-c4cnc5[nH]ccc5c4)ccc3ncc21` [Example 6.3, 1-(2-Fluoro-pyridin-3-yl)-3-methyl-8-(1H-pyrrolo[2,3-b]pyridin-5-yl)-1,3-dihydro-imidazo[4,5-c]quinolin-2-one], the IC50 was 43.2 nM in assay [1] and 13.7 nM in assay [2].

For the compound `Cc1nc(F)ccc1-n1c(=O)n(C)c2cnc3ccc(-c4cncc(N5CCC5)c4)cc3c21` [Example 7.6, 8-(5-Azetidin-1-yl-pyridin-3-yl)-1-(6-fluoro-2-methyl-pyridin-3-yl)-3-methyl-1,3-dihydro-imidazo[4,5-c]quinolin-2-one], the IC50 in assay [1] worked out at 119 nM; in assay [2], 34.4 nM.

Take `COCc1ncc(-c2ccc3ncc4c(c3c2)n(-c2ccc(F)nc2C)c(=O)n4C)cc1OC` [Example 7.7, 1-(6-Fluoro-2-methyl-pyridin-3-yl)-8-(5-methoxy-6-methoxymethyl-pyridin-3-yl)-3-methyl-1,3-dihydro-imidazo[4,5-c]quinolin-2-one]: the IC50 came to 598 nM in assay [1] and 96.1 nM in assay [2].

For the compound `COc1cc(-c2ccc3ncc4c(c3c2)n(-c2ccc(F)nc2C)c(=O)n4C)cnc1CO` [Example 7.10, 1-(6-Fluoro-2-methyl-pyridin-3-yl)-8-(6-hydroxymethyl-5-methoxy-pyridin-3-yl)-3-methyl-1,3-dihydro-imidazo[4,5-c]quinolin-2-one], the IC50 in assay [1] was 315 nM; in assay [2], 123 nM.

Turning to `COc1ccc(-n2c(=O)n(C)c3cnc4ccc(-c5cncc(N6CCC6)c5)cc4c32)c(OC)n1` [Example 8.11, 8-(5-Azetidin-1-yl-pyridin-3-yl)-1-(2,6-dimethoxy-pyridin-3-yl)-3-methyl-1,3-dihydro-imidazo[4,5-c]quinolin-2-one], the figures for the IC50 in assay [1] and in assay [2] were 93.1 nM and under 4.57 nM, respectively.

With `COc1ccc(-n2c(=O)n(C)c3cnc4ccc(-c5cnc(C(OC)OC)c(OC)c5)cc4c32)c(OC)n1` [Example 8.13, 8-(6-Dimethoxymethyl-5-methoxy-pyridin-3-yl)-1-(2,6-dimethoxy-pyridin-3-yl)-3-methyl-1,3-dihydro-imidazo[4,5-c]quinolin-2-one], the IC50 in assay [1] was determined as 599 nM; in assay [2], 208 nM.

In the case of `COc1ccc(-n2c(=O)n(C)c3cnc4ccc(-c5cnc(CO)c(OC)c5)cc4c32)c(OC)n1` [Example 8.14, 1-(2,6-Dimethoxy-pyridin-3-yl)-8-(6-hydroxymethyl-5-methoxy-pyridin-3-yl)-3-methyl-1,3-dihydro-imidazo[4,5-c]quinolin-2-one], the IC50 in assay [1] came out at 186 nM; in assay [2] it was 35 nM.

On to `COc1cc(-c2ccc3ncc4c(c3c2)n(-c2ccc(N3CC(F)(F)C3)nc2C)c(=O)n4C)cnc1CO` [Example 24.4, 1-[6-(3,3-Difluoro-azetidin-1-yl)-2-methyl-pyridin-3-yl]-8-(6-hydroxymethyl-5-methoxy-pyridin-3-yl)-3-methyl-1,3-dihydro-imidazo[4,5-c]quinolin-2-one], for which the values for the IC50 in assay [1] and in assay [2] were 88.5 nM and 22.3 nM, respectively.

For `COc1cc(-c2ccc3ncc4c(c3c2)n(-c2ccc(N3CCCC3)nc2C)c(=O)n4C)cnc1CO` [Example 25.4, 8-(6-Hydroxymethyl-5-methoxy-pyridin-3-yl)-3-methyl-1-(2-methyl-6-pyrrolidin-1-yl-pyridin-3-yl)-1,3-dihydro-imidazo[4,5-c]quinolin-2-one], the IC50 in assay [1] is 58.1 nM; in assay [2] it was 27.5 nM.

On to `CCNc1cc(-c2ccc3ncc4c(c3c2)n(-c2ccc(N3CCCC3)nc2C)c(=O)n4C)cnc1CO` [Example 25.5, 8-(5-Ethylamino-6-hydroxymethyl-pyridin-3-yl)-3-methyl-1-(2-methyl-6-pyrrolidin-1-yl-pyridin-3-yl)-1,3-dihydro-imidazo[4,5-c]quinolin-2-one], for which the IC50 in assay [1] is 7.6 nM; in assay [2], under 4.57 nM.

Regarding `CCNc1cc(-c2ccc3ncc4c(c3c2)n(-c2ccc(N(C)CCO)nc2C)c(=O)n4C)cnc1CO` [Example 26.3, 8-(5-Ethylamino-6-hydroxymethyl-pyridin-3-yl)-1-{6-[(2-hydroxy-ethyl)-methyl-amino]-2-methyl-pyridin-3-yl}-3-methyl-1,3-dihydro-imidazo[4,5-c]quinolin-2-one], the IC50 is 12.8 nM in assay [1] and under 4.57 nM in assay [2].

Turning to `Cc1nc(N2CCC(O)C2)ccc1-n1c(=O)n(C)c2cnc3ccc(-c4cnc(N)c(C(F)(F)F)c4)cc3c21` (centres unmarked) [Example 27.3, 8-(6-Amino-5-trifluoromethyl-pyridin-3-yl)-1-[6-(3-hydroxy-pyrrolidin-1-yl)-2-methyl-pyridin-3-yl]-3-methyl-1,3-dihydro-imidazo[4,5-c]quinolin-2-one], the IC50 in assay [1] was 8.9 nM; in assay [2] it was under 4.57 nM.

`CCOc1ccc(-c2ccc3ncc4c(c3c2)n(-c2ccc(N3CCC(O)C3)nc2C)c(=O)n4C)cn1` (centres unmarked) [Example 27.4, 8-(6-Ethoxy-pyridin-3-yl)-1-[6-(3-hydroxy-pyrrolidin-1-yl)-2-methyl-pyridin-3-yl]-3-methyl-1,3-dihydro-imidazo[4,5-c]quinolin-2-one]: the IC50 in assay [1] was 38.1 nM; in assay [2], under 4.57 nM.

Take `Cc1nc(N2CCC(O)C2)ccc1-n1c(=O)n(C)c2cnc3ccc(-c4cncc(C(C)(C)O)c4)cc3c21` (centres unmarked) [Example 27.5, 8-[5-(1-Hydroxy-1-methyl-ethyl)-pyridin-3-yl]-1-[6-(3-hydroxy-pyrrolidin-1-yl)-2-methyl-pyridin-3-yl]-3-methyl-1,3-dihydro-imidazo[4,5-c]quinolin-2-one]: the IC50 in assay [1] is 309 nM; in assay [2], 160 nM.

`CNc1ncc(-c2ccc3ncc4c(c3c2)n(-c2ccc(N3CCC(OC)C3)nc2C)c(=O)n4C)cn1` (centres unmarked) [Example 28.2, 1-[6-(3-Methoxy-pyrrolidin-1-yl)-2-methyl-pyridin-3-yl]-3-methyl-8-(2-methylamino-pyrimidin-5-yl)-1,3-dihydro-imidazo[4,5-c]quinolin-2-one]: the IC50 in assay [1] was found to be 22.9 nM; in assay [2], 9.1 nM.

`COc1cc(-c2ccc3ncc4c(c3c2)n(-c2ccc(N3CCC(OC)C3)nc2C)c(=O)n4C)cnc1CO` (centres unmarked) [Example 28.3, 8-(6-Hydroxymethyl-5-methoxy-pyridin-3-yl)-1-[6-(3-methoxy-pyrrolidin-1-yl)-2-methyl-pyridin-3-yl]-3-methyl-1,3-dihydro-imidazo[4,5-c]quinolin-2-one]: the IC50 was determined as 121 nM in assay [1] and 44.5 nM in assay [2].

As to `Cc1nc(N2CC(O)C2)ccc1-n1c(=O)n(C)c2cnc3ccc(-c4cncc(C(C)(C)O)c4)cc3c21` [Example 29.1, 1-[6-(3-Hydroxy-azetidin-1-yl)-2-methyl-pyridin-3-yl]-8-[5-(1-hydroxy-1-methyl-ethyl)-pyridin-3-yl]-3-methyl-1,3-dihydro-imidazo[4,5-c]quinolin-2-one], the IC50 in assay [1] came out at 350 nM; in assay [2], 335 nM.

Regarding `COc1cc(-c2ccc3ncc4c(c3c2)n(-c2ccc(N)nc2C)c(=O)n4C)cnc1CO` [Example 30.1, 1-(6-Amino-2-methyl-pyridin-3-yl)-8-(6-hydroxymethyl-5-methoxy-pyridin-3-yl)-3-methyl-1,3-dihydro-imidazo[4,5-c]quinolin-2-one], the IC50 in assay [1] was 715 nM; in assay [2], 53.6 nM.

For `CNc1ncc(-c2ccc3ncc4c(c3c2)n(-c2ccc(N3CC[C@H](O)C3)nc2C)c(=O)n4C)cc1Cl` [Example 32.4, 8-(5-Chloro-6-methylamino-pyridin-3-yl)-1-[6-((S)-3-hydroxy-pyrrolidin-1-yl)-2-methyl-pyridin-3-yl]-3-methyl-1,3-dihydro-imidazo[4,5-c]quinolin-2-one], the figures for the IC50 in assay [1] and in assay [2] were 16 nM and 8 nM, respectively.

Regarding `COc1cc(-c2ccc3ncc4c(c3c2)n(-c2ccc(N3CC[C@H](O)C3)nc2C)c(=O)n4C)cnc1CO` [Example 32.7, 8-(6-Hydroxymethyl-5-methoxy-pyridin-3-yl)-1-[6-((S)-3-hydroxy-pyrrolidin-1-yl)-2-methyl-pyridin-3-yl]-3-methyl-1,3-dihydro-imidazo[4,5-c]quinolin-2-one], the IC50 in assay [1] amounted to 178 nM; in assay [2], 61.7 nM.

For the compound `CNc1ncc(-c2ccc3ncc4c(c3c2)n(-c2ccc(N3CC[C@@H](O)C3)nc2C)c(=O)n4C)cn1` [Example 34.1, 1-[6-((R)-3-Hydroxy-pyrrolidin-1-yl)-2-methyl-pyridin-3-yl]-3-methyl-8-(2-methylamino-pyrimidin-5-yl)-1,3-dihydro-imidazo[4,5-c]quinolin-2-one], the results for the IC50 in assay [1] and in assay [2] were 42 nM and 13 nM, respectively.

As to `CCNc1cc(-c2ccc3ncc4c(c3c2)n(-c2ccc(N3CC(F)(F)C(F)(F)C3)nc2C)c(=O)n4C)cnc1CO` [Example 35.2, 8-(5-Ethylamino-6-hydroxymethyl-pyridin-3-yl)-3-methyl-1-[2-methyl-6-(3,3,4,4-tetrafluoro-pyrrolidin-1-yl)-pyridin-3-yl]-1,3-dihydro-imidazo[4,5-c]quinolin-2-one], the IC50 in assay [1] is 16.3 nM; in assay [2] it was 4.6 nM.
